Columns and labels:
[1] = test system: carboxylase in human saliva; assay: Inhibition of carboxylase in human saliva (p-nitrophenylvalerate hydrolysis, 400 nm); type: biochemical
Experimental: The carboxylase activity in saliva samples is monitored by the hydrolysis of p-nitrophenylvalerate to the readily detectable p-nitrophenol. The concentration of p-nitrophenol in the sample is measured spectrophotometrically at 400 nm, and the value is calculated from p-nitrophenol standard curve (Table 3 and FIG. 4). Values for carboxylase activity in saliva (nmol. min-1 per mL of saliva) are presented in Tables 4-8 and showing in FIG. 5 and FIG. 6. The average specific activity for carboxylase in human saliva is about 47 nmol min^−1 per mL.
The assay for carboxylase consists of 4 mL of tris-HCl buffer (pH 7.0) that contain 25 μL of p-nitrophenylvalerate (13.8 mg/mL of alcohol) and 50-500 μL of human saliva. […] In the inhibition study, the agent is incubated with saliva for about 15-20 minutes before the addition of p-nitrophenylvalerate. Organophosphate concentration is verified by gas chromatography using standard methods as described by Knaak et al. (1993).

[2] = test system: acetylcholinesterase in human saliva; assay: Inhibition of acetylcholinesterase in human saliva (acetylthiocholine iodide/DTNB, 405 nm); type: biochemical; settings: for % Activity / % Inhibition / Absorb. at 408 nm for 65 min. / Absorb. at 408 nm for 180 min. / nmol/min per mg: 0.6 mL saliva, 30 min preincubation at room temperature
Experimental: The hydrolysis of acetylthiocholine iodide (an analog of acetylcholine iodides) by the saliva enzyme or enzymes is measured by generating the yellow 5-thio-2-nitrobenzoate with an absorbance maximum at 405 nm. The rate of change of absorbance is directly proportional to acetylcholinesterase activity. In this procedure, 0.1-1 mL of saliva (3.261 mg protein/mL) is incubated with 100 μL of acetylthiocholine iodide (0.018M) (lot #10H0653 Sigma) for 30-180 minute at 37° C. in 4.0 mL phosphate buffer (pH 7.8). After the incubation, a 0.2 mL of DTNB is added and the sample is read at 405 nm. The enzyme activity is calculated from glutathione standard curve (Table 9 and FIG. 9). Values for AChE activity in human saliva and enzyme kinetics are presented in Tables 10-14 and show in FIG. 10 through FIG. 14.
The AChE specific activity in saliva is about 4 nmol minute^−1 per mL of saliva. […] The percent of enzyme inhibition by organophosphate is calculated and presented in Tables 13-14 and showing in FIG. 15.

[3] = 1.0 ng/ml, Test #2, 0.2 mL saliva, 15 min preincubation at 37° C., 30 min with substrate
[4] = 2.9 ng/ml, Test #2, 0.2 mL saliva, 15 min preincubation at 37° C., 30 min with substrate
[5] = 8.6 ng/ml, Test #2, 0.2 mL saliva, 15 min preincubation at 37° C., 30 min with substrate
[6] = 26 ng/mL, Test #1, 100 μL saliva, 15 min preincubation at 37° C.
[7] = 52 ng/mL, Test #1, 100 μL saliva, 15 min preincubation at 37° C.
[8] = 78 ng/mL, Test #1, 100 μL saliva, 15 min preincubation at 37° C.
[9] = 156 ng/mL, Test #1, 100 μL saliva, 15 min preincubation at 37° C.
[10] = 312 ng/mL, Test #1, 100 μL saliva, 15 min preincubation at 37° C.
[11] = 625 ng/mL, Test #1, 100 μL saliva, 15 min preincubation at 37° C.
[12] = 175 μg/ml, test #1, 200 μL saliva, 15 min preincubation, 37° C.
[13] = .04 ng/ml, Test #2, 0.2 mL saliva, 15 min preincubation at 37° C., 30 min with substrate
[14] = .1 ng/ml, Test #2, 0.2 mL saliva, 15 min preincubation at 37° C., 30 min with substrate
[15] = .3 ng/ml, Test #2, 0.2 mL saliva, 15 min preincubation at 37° C., 30 min with substrate
[16] = 2 μg of DNIO in 4.0 mL, Test #2, 200 μL saliva, 37° C.

## CCOP(N)(=O)Oc1ccccc1C(=O)OC(C)C (centres unmarked) [DNIO, des N-Isofenphos-oxon]
[1]; [3]
  % Activity: 57%
  % Inhibition: 43%
  Absorb. at 400 nm: .46
  nmol/min per mg protein: 7.46 nmol/min per mg protein
[1]; [4]
  % Activity: 50%
  % Inhibition: 50%
  Absorb. at 400 nm: .40
  nmol/min per mg protein: 6.55 nmol/min per mg protein
[1]; [5]
  % Activity: 40%
  % Inhibition: 60%
  Absorb. at 400 nm: .32
  nmol/min per mg protein: 5.24 nmol/min per mg protein
[1]; [6]
  % Activity: 3%
  % Inhibition: 97%
  Absorb. at 400 nm for 20 min.: .02
  Absorb. at 400 nm for 40 min.: .03
  Absorb. at 400 nm for 80 min: .02
[1]; [7]
  % Activity: 5%
  % Inhibition: 95%
  Absorb. at 400 nm for 20 min.: .03
  Absorb. at 400 nm for 40 min.: .03
  Absorb. at 400 nm for 80 min: .03
[1]; [8]
  % Activity: 3%
  % Inhibition: 97%
  Absorb. at 400 nm for 20 min.: .02
  Absorb. at 400 nm for 40 min.: .02
  Absorb. at 400 nm for 80 min: .02
[1]; [9]
  % Activity: 5%
  % Inhibition: 95%
  Absorb. at 400 nm for 20 min.: .02
  Absorb. at 400 nm for 40 min.: .02
  Absorb. at 400 nm for 80 min: .03
[1]; [10]
  % Activity: 13%
  % Inhibition: 87%
  Absorb. at 400 nm for 20 min.: .04
  Absorb. at 400 nm for 40 min.: .06
  Absorb. at 400 nm for 80 min: .08
[1]; [11]
  % Activity: 16%
  % Inhibition: 84%
  Absorb. at 400 nm for 20 min.: .05
  Absorb. at 400 nm for 40 min.: .07
  Absorb. at 400 nm for 80 min: .10
[1]; 5 μg/mL, Test #2, 50 μL saliva, 20 min preincubation
  % Act.: 35%
[1]; [12]
  % Inhib.: 92%
  Absorb. at 400 nm for 20 min.: .16
  Absorb. at 400 nm for 60 min.: .55
[1]; [13]
  % Activity: 94%
  % Inhibition: 6%
  Absorb. at 400 nm: .75
  nmol/min per mg protein: 12.31 nmol/min per mg protein
[1]; [14]
  % Activity: 83%
  % Inhibition: 17%
  Absorb. at 400 nm: .66
  nmol/min per mg protein: 10.87 nmol/min per mg protein
[1]; [15]
  % Activity: 78%
  % Inhibition: 22%
  Absorb. at 400 nm: .62
  nmol/min per mg protein: 10.21 nmol/min per mg protein
[1]; carboxylase, human saliva
  effective concentration for 50% inhibition EC50: 3 ng/mL
[1]; human saliva
  inhibition of carboxylase (in words): inhibited
[2]; 1.0 ng/mL, Test #2
  % Activity: 68%
  % Inhibition: 32%
  Absorb. at 408 nm for 65 min.: .17
  Absorb. at 408 nm for 180 min.: .21
  nmol/min per mg: .29 nmol/min per mg
[2]; 2.9 ng/mL, Test #2
  % Activity: 45%
  % Inhibition: 55%
  Absorb. at 408 nm for 65 min.: .16
  Absorb. at 408 nm for 180 min.: .14
  nmol/min per mg: .19 nmol/min per mg
[2]; 8.6 ng/mL, Test #2
  % Activity: 26%
  % Inhibition: 74%
  Absorb. at 408 nm for 65 min.: .11
  Absorb. at 408 nm for 180 min.: .08
  nmol/min per mg: .11 nmol/min per mg
[2]; 26 ng/mL, Test #2
  % Activity: 19%
  % Inhibition: 81%
  Absorb. at 408 nm for 65 min.: .11
  Absorb. at 408 nm for 180 min.: .06
  nmol/min per mg: .08 nmol/min per mg
[2]; 52 ng/mL, Test #2
  % Activity: 13%
  % Inhibition: 87%
  Absorb. at 408 nm for 65 min.: .09
  Absorb. at 408 nm for 180 min.: .04
  nmol/min per mg: .05 nmol/min per mg
[2]; 78 ng/mL, Test #2
  % Activity: 13%
  % Inhibition: 87%
  Absorb. at 408 nm for 65 min.: .10
  Absorb. at 408 nm for 180 min.: .04
  nmol/min per mg: .05 nmol/min per mg
[2]; 156 ng/mL, Test #2
  % Activity: 13%
  % Inhibition: 87%
  Absorb. at 408 nm for 65 min.: .10
  Absorb. at 408 nm for 180 min.: .04
  nmol/min per mg: .05 nmol/min per mg
[2]; 313 ng/mL, Test #2
  % Activity: 10%
  % Inhibition: 90%
  Absorb. at 408 nm for 65 min.: .07
  Absorb. at 408 nm for 180 min.: .03
  nmol/min per mg: .04 nmol/min per mg
[2]; 625 ng/mL, Test #2
  % Activity: 10%
  % Inhibition: 90%
  Absorb. at 408 nm for 65 min.: .07
  Absorb. at 408 nm for 180 min.: .03
  nmol/min per mg: .04 nmol/min per mg
[2]; [16]
  Absorb. at 405 nm for 50 min.: .14
  Absorb. at 405 nm for 110 min.: .10
  Absorb. at 405 nm for 165 min.: .11
[2]; 2 μg of DNIO in 4.0 mL, Test #2, 200 μL saliva, 37° C. (no inhibitor: 1.14)
  Activity: .22 nmol/min
[2]; .04 ng/mL, Test #2
  % Activity: 94%
  % Inhibition: 6%
  Absorb. at 408 nm for 65 min.: .17
  Absorb. at 408 nm for 180 min.: .29
  nmol/min per mg: .39 nmol/min per mg
[2]; .1 ng/mL, Test #2
  % Activity: 90%
  % Inhibition: 10%
  Absorb. at 408 nm for 65 min.: .14
  Absorb. at 408 nm for 180 min.: .28
  nmol/min per mg: .37 nmol/min per mg
[2]; .3 ng/mL, Test #2
  % Activity: 84%
  % Inhibition: 16%
  Absorb. at 408 nm for 65 min.: .21
  Absorb. at 408 nm for 180 min.: .26
  nmol/min per mg: .34 nmol/min per mg
[2]; DNIO 4 μg in 4 mL, Test #1, 1.0 mL saliva, pH 7.8
  Absorb. at 405 nm for 100 min.: .03
[2]; acetylcholinesterase, human saliva
  effective concentration for 50% inhibition EC50: 3 ng/mL
[2]; human saliva
  inhibition of acetylcholinesterase (in words): inhibited
[2]; saliva incubated with inhibitor about 15 minutes before substrate
  concentration that produced 50% inhibition in AChE: 3 ng per mL

Source: patent US6537744B1, “Use of biomarkers in saliva to evaluate the toxicity of agents and the function of tissues in both biomedical and environmental applications” (priority 1995, dated 2003)
